Test results published in patent US5856506A, “Phosphatase inhibitors and methods of use thereof” (University of Pittsburgh, priority 1997, dated 1999).
Like-named read-outs stand apart in the source and are kept apart here.

How the values were obtained:
[1] = test system: human MDA-MB-231 breast cancer cells; assay: Antiproliferative activity, tetrazolium reduction assay (Lazo method), 72 h; type: cell-based; details: for IC50: MDA-MB-231, 72 h continuous treatment, read-out: concentration causing 50% growth inhibition
Excerpt: The ability of the compounds of the present invention to inhibit proliferation can be assessed by methods known to those of ordinary skill in the art. For example, proliferating cells can be contacted with a compound of the invention, and cell numbers determined. A reduction in cell number in treated versus untreated cells provides a measure of the ability of the present compounds to inhibit proliferation. In a preferred embodiment the cells to be treated are cancer cells, for example breast cancer cells such as the CDC25B+ breast cancer cells MDA-MB-231, which are available from the American Type Culture Collection (Accession No. HTB-26). The antiproliferative activity of the present compounds can also be measured by the assay described by Lazo et al. (1995) J. Biol. Chem. 270: 5506, the disclosure of which is incorporated herein by reference. The microtiter-based calorimetric assay is based upon the reduction of 3-[4,5-dimethylthiazol-2-yl]-2,5-diphenyl tetrazolium bromide by living cells, and permits evaluation of the cytostatic or cytotoxic actions of large numbers of compounds quickly in mouse embryonic fibroblasts and human CDC25B+ breast cancer cells. Briefly, exponentially growing CDC25B+ MDA-MB-231 cells are treated continuously with from 0 to 100 μM of a compound of the invention, and cell proliferation is determined calorimetrically after 72 hours by assessing the ability of the cells to reduce 3-[4,5-dimethylthiazol-2-yl]-2,5-diphenyl tetrazolium bromide.
Human MDA-MB-231 breast carcinoma cells were obtained from the American Type Culture Collection at passage 28 and were maintained for no longer than 20 passages. The cells were grown in RPMI-1640 supplemented with 1% penicillin (100 μg/mL) and streptomycin (100 μg/mL), 1% L-glutamate,and 10% fetal bovine serum in a humidified incubator at 37° C. under 5% CO2 in air. Cells were routinely found free of mycoplasma. To remove cells from the monolayer for passage or flow cytometry, cells were washed two times with phosphate buffer and briefly (<3 min) treated with 0.05% trypsin/2 mM EDTA at room temperature. After the addition of at least two volumes of growth medium containing 10W fetal bovine serum, the cells were centrifuged at 1,000×g for 5 min. Compounds were made into stock solutions using DMSO, and stored at -20° C. All compounds and controls were added to obtain a final concentration of 0.1-0.2% (v/v) of the final solution for experiments.
The antiproliferative activity of the compounds was determined by the method of Lazo et al. (1995) J. Biol. Chem. 270:5506. Briefly, cells (6.5×10^3 cells/cm^2) were plated in 96 well flat bottom plates for the cytotoxicity studies and incubated at 37° C. for 48 h. The plating medium was aspirated off 96 well plates and 200 μL of growth medium containing the compound was added per well. Compounds were used at from O to the highest available concentration which ranged from 30 to 100 μM. Plates were incubated for 72 h, and then washed 4× with serum free medium. After washing, 50 μL of 3-[4,5-dimethylthiazol-2-yl]-2,5-diphenyl tetrazolium bromide solution (2 mg/mL) was added to each well, followed by 150 μL of complete growth medium. Plates were then incubated an additional 4 h at 37° C. The solution was aspirated off, 200 μL of DMSO added, and the plates were shaken for 30 min at room temperature. Absorbance at 540 nm was determined with a Titertek Multiskan Plus plate reader. Biologically active compounds were tested at least 3 independent times.

PP1 = assay: Phosphatase activity by [32P] release from phosphorylase-a or phosphohistone (Honkanen method); type: biochemical; details: 100 μM inhibitor; none = 100
Protocol: (§1) It has been found in accordance with the present invention that compounds of formula I are capable of inhibiting serine/threonine protein phosphatases. Inhibition of serine/threonine protein phosphatases is defined herein as inhibition of the activity of one or more of PP1, PP2A or PP3 at a concentration of 100 μM or less of the inhibitor compound. In a preferred embodiment, the activity of the phosphatase is inhibited by at least 10%. In more preferred embodiments, the activity of the phophatase is inhibited by at least 25%, or even more preferably, by at least 50%. Inhibition of PP1, PP2A or PP3 can be assessed by methods known to one of ordinary skill in the art. Suitable assays are described, for example by Honkanen et al. (1994) Toxicon 32:339 and Honkanen et al. (1990) J. Biol. Chem. 265: 19401, the disclosures of which are incorporated herein by reference. Briefly, phosphatase activity is determined by quantifying the [^32 p] released from a ^32 p-labeled substrate such as phosphohistone or phosphorylase-a. Decreased [^32 p] release in the presence of the compounds of the present invention relative to control samples provides a measure of the ability of the compounds of the invention to inhibit PP1, PP2A or PP3.
(§2) Phosphatase activity and the inhibitory activity of the compounds of Table 1 were determined by the method of Honkanen et al. (1994) Toxicon 32:339. Briefly, phosphatase activity against phosphorylase-a or phosphohistone was 25 determined by the quantification of liberated [^32 p]. Assays, 80 μl total volume, containing 50 mM Tris-HCl, pH 7.4, 0.5 mM DTT, 1 mM EDTA (assay buffer) and [^32 p]phosphoprotein (1-2 μM PO4), were conducted as described previously (Honkanen et al., 1991 Mol. Pharmac. 40:577). Dephosphorylation reactions were routinely conducted for 5-10 min. using phosphorylase-a as a substrate and for 10-20 min. using phosphohistone. In all assays the dephosphorylation of substrate was kept to less than 10% of the total phosphorylated substrate available, and the reactions were adjusted to ensure that enzyme activity was linear with respect to enzyme concentration and time. [^32 p]Phosphate liberated by the enzymes was extracted as a phosphomolybdate complex and measured according to the methods of Killilea et al. (1978) Arch. Biochem. Biophys. 191:638. Inhibition of protein phosphatase activity by inhibitors was determined by adding the 100 μM of inhibitors to the enzyme mixture 5-10 min. prior to initiating the reaction with the addition of substrate.

PP2A = PP2A (Bos taurus, UniProt P67774); assay: as above; type: biochemical; details: 100 μM inhibitor; none = 100; read-out: PP2A, percent inhibition relative to control (100%)
PP2A, sequence (P67774 whole entry): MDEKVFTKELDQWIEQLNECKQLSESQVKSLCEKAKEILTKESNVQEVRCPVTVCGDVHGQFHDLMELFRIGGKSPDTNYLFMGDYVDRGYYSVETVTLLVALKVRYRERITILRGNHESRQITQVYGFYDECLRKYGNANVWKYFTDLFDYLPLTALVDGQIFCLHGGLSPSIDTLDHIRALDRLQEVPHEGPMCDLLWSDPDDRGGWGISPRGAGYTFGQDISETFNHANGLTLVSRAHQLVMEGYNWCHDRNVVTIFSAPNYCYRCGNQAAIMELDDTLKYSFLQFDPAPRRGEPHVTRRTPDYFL
Protocol: as §1, §2

PP3 = assay: as above; type: biochemical; details: 100 μM inhibitor; none = 100
Protocol: as §1, §2

`CCCCCCCCCC(=O)NC(CCC(=O)N(CCNC(=O)c1nc(-c2ccccc2)oc1-c1ccccc1)Cc1ccccc1)C(=O)O` (stereo not shown) [Compound 1f] was tested. Which IC50 ([1]; Homo sapiens, MDA-MB-231, 72 h) did it give?
The IC50 was 100 µM.

What about the “concentration dependence of growth inhibition (in words)” value ([1]; MDA-MB-231, 72 h) of the same compound?
The value was “concentration-dependent inhibition in proliferation”.

And the “concentration dependence of growth inhibition (in words)” value ([1]; MDA-MB-231, 72 h, listed as if)?
The value was “clear concentration-dependency”.

What about the IC50 [1] of the same compound?
The IC50 was 88 to 100 µM.

What about the “PP1 remaining activity, percent of control” value (PP1) of the same compound?
Its value is 117%.

And the PP2A remaining activity, % of control at 100 µM (PP2A)?
Its PP2A remaining activity, % of control at 100 µM is 156%.

What about the “PP3 remaining activity, percent of control” value (PP3) of the same compound?
Its value is 85%.
